row,melting point [°C],SMILES
1,124,COc1cc(COC2CCN(C(=O)c3ccc([N+](=O)[O-])cc3)CC2)cc(OC)c1OC
2,156 to 158,COc1ccc(OC)c(S(=O)(=O)n2c(COC(C)(C)C(=O)O)cc3cc(Cl)ccc32)c1
3,164 to 165,CC1(C)C2CC[C@@]1(C)C(C(=O)N1C(=O)OC(C#CC3CC3)(C(F)(F)F)c3cc(Cl)ccc31)C2 (some centres not stated)
4,134 to 144,COC(=O)C(Oc1ccc(Cl)cc1)c1ccc(S(=O)c2ccc(Cl)cc2)cc1 (configuration not stated)
5,201 to 205,N#Cc1cnc2cc3c(cc2c1Nc1cccc(Br)c1)OCO3
6,> 270,CCCC1=C(C#N)C(c2ccccc2Cl)c2c(n[nH]c2-c2ccccc2OC)N1 (configuration not stated)
7,56 to 58,CCCc1c(OCCCCCC(=O)NCCCCCCc2cccnc2)ccc(C(C)=O)c1O
8,158 to 159,COc1ccc(CC(=O)O)c(C(=O)c2ccccc2)c1
9,264 to 266,COC(=O)c1cc(=O)c2cc(SC)ccc2[nH]1
10,> 300,Oc1nc2cc(Cl)c3nccnc3c2nc1O
11,238,O=C(O)c1nc(-c2ccc(Cl)cc2Cl)[nH]c1C(=O)O
12,133 to 135,CC1(C)C=Cc2cc(C(=O)NCCc3ccc(OCc4ccccc4)cc3)ccc2O1
13,118 to 120,CC(C#N)Oc1cccc(C=Cc2ccc3ccc(Cl)cc3n2)c1 (configuration not stated)
14,97 to 100,CON=C(C1=NCCO1)c1ccccc1Oc1ccc(C(F)(F)F)cn1
15,77,CC1(C)[C@@H]2CC[C@@]1(C)C[C@H]2OC(=O)C1CCC(C(=O)O[C@@H]2C[C@]3(C)CC[C@H]2C3(C)C)CC1 (some centres not stated)
16,147 to 150,O[C@H]1CC[C@@H](CCN2CCC(=C3c4ccc(F)cc4Sc4ccc(C(F)(F)F)cc43)CC2)CC1
17,83 to 105,CC(CC1OCCc2ccccc21)NCC(O)c1ccc(O)cc1 (configuration not stated)
18,75 to 76,Cc1nc(-c2cccc(CNc3ccccc3)c2)no1
19,140 to 144,CCCOc1ccc(S(=O)(=O)NCCc2c[nH]cn2)cc1-c1nc2cc(Cl)c([N+](=O)[O-])cc2c(=O)[nH]1
20,72 to 76,c1cc2cc([C@@H]3CO3)ccc2s1
21,71.8 to 73,C=C(c1ccc(Br)cc1)c1ccc(OCCCC)cc1
22,193 to 196,Cc1ccccc1-c1c2c(cc3ccc(O)cc13)-c1ccc(O)cc1CO2
23,97 to 100,CCOC(=O)Nc1ccc(OC)cc1C(C)=O
24,81 to 84,COC(=O)CCCCCNC(=O)C(COS(C)(=O)=O)NS(=O)(=O)c1ccc(Cl)cc1 (racemic)

row,melting point [°C],SMILES
1,168 to 170,O=C(O)C(=O)CC(=O)c1cccn1CCc1ccccc1
2,85.1 to 87.1,COc1c(C)c(C)c(OC)c(CCCCO)c1C
3,215 to 216,Fc1cccc(F)c1-c1ncc(-c2ccc(-c3ccc(OC(F)(F)F)cc3)cc2)cn1
4,318 to 332,CN(C)S(=O)(=O)c1cc2[nH]c(=O)c(=O)[nH]c2cc1[N+](=O)[O-]
5,73.5 to 76,CC(=O)C(=C1SCCCN1C(C)=O)[N+](=O)[O-]
6,196,O=C(Nc1nccs1)c1c([C@@H]2CCCN2)nc2c(C(F)(F)F)cccc2c1O
7,147 to 151,O=C([C@@H]1CCCN1S(=O)(=O)c1ccc2ccccc2c1)N1C[C@@H](c2ccc(Cl)cc2)Sc2ccccc21
8,199 to 200,COC(=O)c1ccc(C)c(-n2c(C)cc(OCc3ccccc3CNC(=O)Nc3cc(C(C)(C)C)nn3-c3ccc(O)cc3)c(Cl)c2=O)c1
9,46 to 48,CC(C)(Cc1cccc(C(=O)c2cccc(CC(C)(C)C(=O)O)c2)c1)C(=O)O
10,> 300,Oc1nc2ccc3c(c2nc1O)CCCC3
11,122 to 124,OC(CCc1ccc2ccccc2c1)Cn1ccnc1 (configuration not stated)
12,103 to 106,CCOC(=O)Cc1ccc(C(=O)c2ccc([N+](=O)[O-])cc2)n1C
13,180 to 182,CCOCc1nc2c(N)nc3cc(-c4cccnc4)ccc3c2n1CC(C)C
14,194 to 199,COc1cc(OC2OC(CO)C(O)C(O)C2O)ccc1C=Cc1cc(C=Cc2ccc3cc[nH]c3c2)n[nH]1 (configuration not stated)
15,91.5 to 94,O=C(OCc1ccc([N+](=O)[O-])cc1)N1CCC(O)CC1
16,152 to 154,COc1ccc(CCc2ccncc2NC(=O)NCc2ccccc2)cc1OC1CCCC1
17,118 to 120,Nc1ccc(N2CCC(N3CCOCC3)CC2)c(C(F)(F)F)c1
18,193 to 196,COc1cc(Nc2c(C#N)cnc3cc(OCC4CCCCO4)c(OC)cc23)c(Cl)cc1Cl (configuration not stated)
19,140 to 142,CCOC(=O)C(NC(=O)CNC(N)=O)C(=O)OCC
20,110 to 111,O=Cc1cccc(OCCn2ncc3ccccc3c2=O)c1
21,97 to 100,COC(=O)COc1c(C(=O)OC)n(-c2ccccc2)c2ccc(OC)cc12
22,> 250,O=[N+]([O-])c1ccc(Oc2c(Cl)cc(S(=O)(=O)Nc3nc(-c4cccc([N+](=O)[O-])c4)cs3)cc2Cl)cc1
23,65 to 67,CCOC(=O)CCCCc1ccc2c(c1)C[C@@H](NC(=O)OC(C)(C)C)CC2
24,237,c1ccc(-c2ncc(-c3nnn[nH]3)cn2)cc1

row,melting point [°C],SMILES
1,67 to 73,Cc1cc(C)cc(CCCn2c(=O)c3c(N4CCN(C)CC4)cc(Cl)cc3n(Cc3ccccc3)c2=O)c1
2,115 to 116,Cc1cc(NC(=O)NN(c2ccccc2)c2cccc(C#N)c2)ccc1N1CCOCC1
3,186 to 188,CCOC(=O)C(=O)Nc1ccc2c(c1)-n1cc(C(=O)OC)nc1CO2
4,183 to 184,Cc1nn(Cc2cccc(Cl)c2)cc1C(=O)CC(=O)C(=O)O
5,153,Nc1cc(F)c([N+](=O)[O-])cc1F
6,203 to 205,Cc1[nH]c(-c2ccccc2)c(N)c1C(=O)c1ccccc1
7,87.5 to 89,CCOC(=O)c1cc(-c2ccc(Cl)cc2)ns1
8,197 to 198,Cc1nc(N2CCN(Cc3ccc(OC(F)(F)F)cc3)C2=O)sc1C(=O)NCc1ccccc1
9,154 to 155,Cc1oc(-c2ccco2)nc1COc1ccc(Cc2nc(CCC(=O)O)c(-c3ccccc3)o2)cc1
10,284 to 288,CCc1nnc2c(N)nc3ccccc3n12
11,120 to 121,CC(OCc1ccc(Cl)c2ccccc12)(C(=O)O)C(F)(F)F (configuration not stated)
12,52 to 54,CCCCCCCCCCCCCCOCC(COCCCCCCCCCCCCCC)(CC(=O)N(C)C)CC(=O)N(C)C
13,285,C[C@H](NC1Cc2ccccc2C1)C(=O)O
14,208 to 209,CC1Oc2ccc(Br)c(C=NO)c2O1 (configuration not stated)
15,187 to 189,O=C(O)C(O)=CC(=O)c1cc(Cc2ccc(F)cc2F)cn(Cc2ccccc2F)c1=O
16,80,CCCCCCCCCCCCCCCC(=O)NC(C(=O)OC)C(O)CCCCCCCCCCCCCCC (configuration not stated)
17,170 to 172,CC(O)c1cccc(-c2ccc3nc(-c4ccc(Cl)cc4)cn3c2)c1Cl (configuration not stated)
18,124 to 126,CN(C)CC(C)(C)CNc1nccc(-c2c(-c3ccc(F)cc3Cl)nc3occn23)n1
19,208 to 209,CCCc1nnc(N2CCN(c3ccc(N4CC(CNC(C)=O)OC4=O)cc3F)CC2)s1 (configuration not stated)
20,214 to 216,CCC(C)Nc1ccc2n[nH]c(=O)n2n1 (configuration not stated)
21,156 to 157,Cc1nc(Cn2c(=O)sc3cc(F)c(N)cc32)no1
22,127 to 129,Cc1nccn1-c1nc(-c2ccc(C(F)(F)F)cc2)c(CCCO)o1
23,213 to 215,CC(=NOCCOc1ccc(CC2SC(=O)NC2=O)cc1)c1ccc(S(=O)(=O)c2ccncc2)cc1 (configuration not stated)
24,162 to 163,CCOC(=O)COc1cc(C(C)(C)C)c(SC2=C(O)CC(CCc3ccc(O)cc3)(CCc3ccc(O)cc3)OC2=O)cc1C

row,melting point [°C],SMILES
1,210,CC(=O)Oc1cc(C)ccc1C1CCN(CCCCNC(=O)c2ccc(NC(=O)c3ccc(Cl)cc3)cc2)CC1
2,212 to 215,Cc1cccc(Cl)c1C(=O)N[C@@H](Cc1ccc(NC(=O)c2c(Cl)cccc2Cl)cc1)C(=O)O
3,153 to 155,CC(=O)SCC(C(=O)N1CC2(C[C@H]1C(=O)O)C(=O)CCC2=O)C(F)(F)F (some centres not stated)
4,169 to 174,O=CNc1ccccc1CNC1CCC(=O)NC1=O (configuration not stated)
5,88.1 to 92,C[C@@H]1CN(c2c(C=O)cc(Br)c(F)c2F)C[C@H](C)O1
6,154,N#CC=Cc1ccc(C(=O)Cl)cc1
7,67 to 69,Cc1ccn2c(C)c(CCc3ccc4nc(N(C)C)oc4c3)nc2c1
8,125 to 128,COc1cc(Cl)c2c(c1)CCN2c1cc(NC(C)C2CCC2)nc(C)n1 (configuration not stated)
9,215 to 216,NC(=O)c1[nH]cnc1OC1OC(COCc2ccccc2)C(OCc2ccccc2)C1OCc1ccccc1 (configuration not stated)
10,195 to 197,CS(=O)(=O)c1ccc(-c2nc(C(F)(F)F)nc(Cl)c2-c2ccc(F)cc2)cc1
11,137,COc1cc(NC(C)C)ccc1CN1C(=O)C(C)(c2ccccc2Cl)c2cc(Cl)ccc21 (configuration not stated)
12,88,CC1(C)CC(C(O)CNc2nc(NCc3ccccc3)nc(NCC(O)C3CC(C)(C)NC(C)(C)C3)n2)CC(C)(C)N1 (configuration not stated)
13,265 to 266,O=C1Cn2ccnc2-c2ccccc2N1
14,81 to 82,COc1ccccc1OCCCc1oc(N2CCOCC2)nc1-c1ccc(Cl)cc1
15,172 to 173,CCOC(=O)c1cnc2ccn(Cc3ccccc3)n2c1=O
16,211 to 213,Cc1cc2c(cc1C1=NNC(=O)CC1)OCC(=O)N2C
17,242 to 246,O=C1Nc2c(cc([N+](=O)[O-])cc2[N+](=O)[O-])C1c1ncnc2c1cnn2C1CCCC1 (configuration not stated)
18,166 to 169,CN(C)c1cccc2c1C(=O)N(C1(C(N)=O)CCCCC1)C2=O
19,125,CN(C)C=Nc1ccc(-c2ccc(Cl)cc2)cn1
20,267 to 269,O=C(O)c1ccc2c(c1)Sc1ccccc1N=C2N1CCOCC1
21,48 to 49,Cc1cccc(Br)c1C=O
22,202 to 204,O=C1Cc2cc3c(cc2C(c2ccc([N+](=O)[O-])cc2Cl)=NN1)OCO3
23,104 to 105,CC1(C)OC(c2cccs2)CN1C(=O)C(Cl)Cl (configuration not stated)

row,SMILES,melting point [°C]
1,Cc1nnc2n1-c1sc(Cl)cc1C(c1ccccn1)=NC2,174 to 176
2,O=C(O)Cc1ccc(CCl)cc1,147 to 149
